In test [1] the target is T1, FAAH (Mus musculus, UniProt O08914).
T1 construct: Then the mPBMCs were acquired from the mouse blood and subjected to family wide probe treatment; from tissue; host or cells: mouse blood PBMCs (mPBMCs)
T1 sequence (O08914 1-579): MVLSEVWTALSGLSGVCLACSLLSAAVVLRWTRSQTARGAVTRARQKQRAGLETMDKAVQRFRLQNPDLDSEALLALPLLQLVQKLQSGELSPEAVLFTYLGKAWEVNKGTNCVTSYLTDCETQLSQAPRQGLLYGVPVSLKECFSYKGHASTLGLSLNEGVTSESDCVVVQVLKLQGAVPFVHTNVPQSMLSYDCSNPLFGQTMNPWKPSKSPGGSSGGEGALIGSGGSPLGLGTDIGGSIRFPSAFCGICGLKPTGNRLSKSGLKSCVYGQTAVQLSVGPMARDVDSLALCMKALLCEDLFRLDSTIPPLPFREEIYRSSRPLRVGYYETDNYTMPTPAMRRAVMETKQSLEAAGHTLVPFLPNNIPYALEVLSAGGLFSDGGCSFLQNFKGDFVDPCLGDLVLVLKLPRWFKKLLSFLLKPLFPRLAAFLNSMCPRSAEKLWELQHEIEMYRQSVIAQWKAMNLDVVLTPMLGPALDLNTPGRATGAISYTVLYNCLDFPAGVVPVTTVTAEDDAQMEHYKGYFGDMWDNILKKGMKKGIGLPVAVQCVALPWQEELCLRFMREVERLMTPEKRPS
The test is described as follows: sADPL in vivo target engagement in mPBMCs after oral gavage, off-target FAAH. As to conditions: mice, 3 and 80 mg/kg. An excerpt: FIG. 25. In vivo Target Engagement. The mice were administrated with vehicle (PEG300) or NCEH1 inhibitor JW480 by oral gavage. Then the mPBMCs were acquired from the mouse blood and subjected to family wide probe treatment to profile the in vivo target engagement.
Following the in vitro study, in vivo target engagement was planned. In this experiment, the inventors orally gavaged the mice with vehicle or inhibitors, then collected the mPBMCs for probe treatment and sADPL measurement. Again, first the activity of NCEH1 was tested in mice PBMCs, and good activity was found. The delta Ct is over 7 cycles, which is over 100 fold change.

Test [2] has as its target T2, NCEH1 (Homo sapiens, UniProt Q6PIU2).
T2 sequence (Q6PIU2 1-408): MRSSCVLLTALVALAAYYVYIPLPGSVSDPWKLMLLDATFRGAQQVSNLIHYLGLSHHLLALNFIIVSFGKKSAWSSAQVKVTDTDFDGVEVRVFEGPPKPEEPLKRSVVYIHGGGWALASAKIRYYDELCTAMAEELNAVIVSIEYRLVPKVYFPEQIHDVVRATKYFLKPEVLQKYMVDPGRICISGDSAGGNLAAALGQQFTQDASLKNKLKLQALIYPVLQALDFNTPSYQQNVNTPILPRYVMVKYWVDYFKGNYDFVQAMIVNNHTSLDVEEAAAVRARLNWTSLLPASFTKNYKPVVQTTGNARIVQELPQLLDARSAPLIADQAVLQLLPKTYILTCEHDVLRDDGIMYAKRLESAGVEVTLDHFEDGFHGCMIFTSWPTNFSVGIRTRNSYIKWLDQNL
The arrangement: endogenous NCEH1 activity in SKOV3 cells; endogenous in cells; host or cells: SKOV3; wild-type PC3; PAFAH2-expressing PC3. As to conditions: previously reported; PC3 cells; read-out: IC50 for NCEH1 previously reported by gel-based profiling; cited from earlier work.

One may read the IC50 as the concentration needed to halve the response being measured. In the case of `CC(C)c1ccccc1OC(=O)NCCc1ccc2ccccc2c1` [JW480], the “in vivo target engagement of off-target FAAH in mPBMCs” value in test [1] is “no target engagements were observed”. For the same compound, the half-maximal inhibitory concentration (IC50) in test [2] is 0.012 µM.

The values above are taken from patent US12276654B2, “Chemical probe-dependent evaluation of protein activity and uses thereof” (The University of Chicago, priority 2017, dated 2025).
